Where “and” joins values, the source holds several entries; their conditions need not be identical. Identical values can stand only once.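 These data come from cells grown in 96-well plates and exposed to compound for 48 hours at five concentrations. The concentration for 50% growth inhibition is given as GI50. TGI marks complete inhibition of growth.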
What was measured:
Assay in all cases: NCI tumour cell line growth inhibition, 48 h
[1] = test system: OVCAR-8 ovarian
[2] = test system: CCRF-CEM leukemia
[3] = test system: A549 NSCLC
[4] = test system: MDA-MB-435
[5] = test system: MALME-3M melanoma
[6] = test system: UACC-62 melanoma
[7] = test system: UACC-257 melanoma
[8] = test system: LOX IMVI melanoma
[9] = test system: NCI/ADR-RES ovarian
[10] = test system: SR leukemia

Compound: CCOC(=O)NC(=S)N(CC(=O)c1cc(OC)c(OC)c(OC)c1)c1ccc(Cl)cc1
- GI50 [1]: > 100 µM
- TGI [1]: > 100 µM
- GI50 [2]: 71.4 µM
- TGI [2]: > 100 µM
- GI50 [3]: 59.6 µM
- TGI [3]: > 100 µM
- GI50 [4]: > 100 µM
- TGI [4]: > 100 µM
- GI50 [5]: > 100 µM
- TGI [5]: > 100 µM
- GI50 [6]: 55.2 µM
- TGI [6]: > 100 µM
- GI50 [7]: 25.1 µM
- TGI [7]: > 100 µM
- GI50 [8]: 23.7 µM
- TGI [8]: > 100 µM
- GI50 [9]: 56.5 µM
- TGI [9]: > 100 µM
- GI50 [10]: 38.1 µM
- TGI [10]: > 100 µM

Compound: COC(=N)C1(C#N)NC(c2ccsc2)C(C#N)(C#N)NC1c1ccsc1 (stereo not given)
- TGI [1]: > 100 µM
- TGI [2]: > 100 µM
- TGI [3]: > 100 µM
- TGI [4]: > 100 µM
- TGI [5]: > 100 µM
- TGI [6]: > 100 µM
- TGI [7]: > 100 µM
- TGI [8]: > 100 µM
- TGI [9]: > 100 µM
- TGI [10]: > 100 µM

Compound: O=C(O)C(Cc1ccccc1)NCc1c(O)ccc2c(-c3ccccc3)cc(=O)oc12 (stereo not given)
- TGI [1]: > 100 µM
- TGI [2]: > 100 µM
- TGI [3]: > 100 µM
- TGI [4]: > 100 µM
- TGI [5]: > 100 µM
- TGI [6]: > 100 µM
- TGI [7]: > 100 µM
- TGI [8]: > 100 µM
- TGI [9]: > 100 µM
- TGI [10]: > 100 µM

Compound: COc1cc2c(/C=C3/C(=O)Nc4ccccc43)c(Cl)n(Cc3ccc(Cl)cc3)c2cc1C
- TGI [1]: 0.989 µM
- TGI [3]: 10.6 µM
- TGI [4]: 0.428 µM
- TGI [5]: 14.5 µM
- TGI [6]: 2.5 µM
- TGI [7]: 8.43 µM
- TGI [8]: 2.54 µM
- TGI [9]: 0.612 µM
- TGI [10]: 0.43 µM

Compound: N#Cc1c(NC(=S)Nc2ccc(Cl)cc2)sc2c1CCN(N1CCc3c(sc(NC(=S)Nc4ccc(Cl)cc4)c3C#N)C1)C2
- TGI [1]: 88.5 µM
- TGI [2]: > 100 µM
- TGI [3]: > 100 µM
- TGI [4]: > 100 µM
- TGI [5]: > 100 µM
- TGI [6]: 41.8 µM
- TGI [7]: > 100 µM
- TGI [8]: 23.4 µM
- TGI [9]: > 100 µM
- TGI [10]: > 100 µM

Compound: CCOC(=O)c1c(-c2ccc(OC)cc2)ccn1C
- TGI [1]: > 10 µM
- TGI [2]: > 10 µM
- TGI [3]: > 10 µM
- TGI [4]: > 10 µM
- TGI [5]: > 10 µM
- TGI [6]: > 10 µM
- TGI [7]: > 10 µM
- TGI [8]: > 10 µM
- TGI [9]: > 10 µM
- TGI [10]: > 10 µM

Compound: Cc1nc2c(Br)cc(Br)cc2c(=O)n1-c1ccccc1NC1OC(CO)C(O)C(O)C1O (stereo not given)
- TGI [1]: > 100 µM
- TGI [2]: > 100 µM
- GI50 [3]: 27.8 µM and > 100 µM
- TGI [3]: > 100 µM
- TGI [4]: > 100 µM
- TGI [5]: > 100 µM
- TGI [6]: > 100 µM
- TGI [7]: > 100 µM
- TGI [8]: > 100 µM
- TGI [9]: > 100 µM
- GI50 [10]: > 100 µM and 44.8 µM
- TGI [10]: > 100 µM

Compound: COC(=O)c1c2c(cc3c1CC1(Cc4cc5c(c(C=O)c4C1)CCC5)C3)CCC2 (stereo not given)
- TGI [1]: > 100 µM
- TGI [2]: 56.7 µM
- TGI [3]: > 100 µM
- TGI [4]: 50.5 µM
- TGI [5]: 61.7 µM
- TGI [7]: 71.3 µM
- TGI [8]: 56.5 µM
- TGI [9]: > 100 µM
- TGI [10]: 53.7 µM

Compound: Cn1/c(=N\N=C2\C=C3CCCCC3(C)CC2)sc2ccccc21 (stereo not given)
- TGI [1]: > 100 µM
- TGI [2]: > 100 µM
- TGI [3]: > 100 µM
- TGI [4]: > 100 µM
- TGI [5]: > 100 µM
- TGI [6]: > 100 µM
- TGI [7]: > 100 µM
- TGI [8]: > 100 µM
- TGI [9]: > 100 µM
- TGI [10]: > 100 µM

Compound: O=C(O)c1c(CC(Cc2ccc3c(c2)CCC3)C(=O)O)ccc2c1CCC2 (stereo not given)
- TGI [1]: > 100 µM
- TGI [2]: > 100 µM
- TGI [3]: > 100 µM
- TGI [4]: > 100 µM
- TGI [5]: > 100 µM
- TGI [7]: > 100 µM
- TGI [8]: > 100 µM
- TGI [9]: > 100 µM
- TGI [10]: > 100 µM

Compound: C[n+]1cccc2ccc3cccnc3c21
- TGI [1]: > 100 µM
- TGI [2]: > 100 µM
- TGI [3]: > 100 µM
- TGI [4]: > 100 µM
- TGI [5]: 49.9 µM
- TGI [6]: > 100 µM
- TGI [7]: > 100 µM
- TGI [8]: > 100 µM
- TGI [9]: > 100 µM
- TGI [10]: > 100 µM

Compound: COc1ccc(N2C(=O)C3c4[nH]c5c(C)cccc5c4C4CCC(C(C)C)CC4C3C2=O)cc1 (stereo not given)
- TGI [1]: 42.9 µM
- TGI [3]: > 100 µM
- TGI [4]: 23.3 µM
- TGI [5]: 36.8 µM
- TGI [7]: > 100 µM
- TGI [8]: 19.3 µM
- TGI [9]: 51.1 µM
- TGI [10]: 32.5 µM

Compound: COc1ccc(-c2ccc(C(=O)C=P(c3ccccc3)(c3ccccc3)c3ccccc3)cc2)cc1
- TGI [2]: > 100 µM
- TGI [3]: 25.9 µM
- TGI [4]: 30 µM
- TGI [5]: 43.9 µM
- TGI [6]: 28.9 µM
- TGI [7]: 45.2 µM
- TGI [8]: 31.5 µM
- TGI [9]: 37.5 µM
- TGI [10]: 73.6 µM

Compound: CCCCCC[C@H]([C@H](C)O)n1cnc2c(N)ncnc21
- TGI [1]: > 100 µM
- TGI [2]: > 100 µM
- TGI [3]: > 100 µM
- TGI [4]: > 100 µM
- TGI [5]: > 100 µM
- TGI [6]: > 100 µM
- TGI [7]: > 100 µM
- TGI [8]: > 100 µM
- TGI [9]: > 100 µM
- TGI [10]: > 100 µM

Compound: C[C@]12CC[C@H]3[C@@H](CC=C4C[C@@H](N5CCCC5)CC[C@@]43C)[C@@H]1C[C@H](N1CCCCC1)[C@@H]2O
- TGI [1]: > 100 µM
- TGI [2]: > 100 µM
- TGI [3]: > 100 µM
- TGI [4]: > 100 µM
- TGI [5]: > 100 µM
- TGI [6]: > 100 µM
- TGI [7]: 83.8 µM
- TGI [8]: > 100 µM
- TGI [9]: > 100 µM
- TGI [10]: 35.7 µM

Compound: C=C1c2nc3ccccc3n2C=C(c2ccc(C)cc2)N1c1ccc(OC)cc1
- TGI [1]: > 100 µM
- TGI [2]: > 100 µM
- TGI [3]: > 100 µM
- TGI [4]: 49.2 µM
- TGI [5]: > 100 µM
- TGI [6]: > 100 µM
- TGI [7]: > 100 µM
- TGI [8]: > 100 µM
- TGI [9]: > 94.8 µM
- TGI [10]: 19.8 µM

Compound: C=C(Br)CN=CN(C)C
- TGI [1]: > 100 µM
- TGI [2]: > 100 µM
- TGI [3]: > 100 µM
- TGI [4]: > 100 µM
- TGI [5]: > 100 µM
- TGI [6]: > 100 µM
- TGI [7]: > 100 µM
- TGI [8]: > 100 µM
- TGI [9]: > 100 µM
- TGI [10]: > 100 µM

Compound: COC1(CC[C@@H](C)COC2OC(CO)C(O)C(O)C2O)OC2C[C@H]3[C@@H]4CC[C@H]5C[C@@H](OC6OC(CO)C(OC7OC(CO)C(O)C(O)C7O)C(O)C6OC6OC(C)C(O)C(O)C6O)[C@H](O)C[C@]5(C)[C@H]4CC[C@]3(C)C2[C@@H]1C (stereo not given in full)
- TGI [1]: 3.75 µM
- TGI [2]: 3.9 µM
- TGI [3]: 3.83 µM
- TGI [4]: 3.5 µM
- TGI [5]: 3.33 µM
- TGI [6]: 3.45 µM
- TGI [7]: 3.5 µM
- TGI [8]: 3.22 µM
- TGI [9]: > 20.6 µM
- TGI [10]: 16.8 µM

Compound: CC1OC(OC2C(O[C@H]3CC[C@@]4(C)C(=CC[C@H]5[C@@H]6C[C@@H]7O[C@]8(CC[C@@H](C)CO8)[C@@H](C)[C@@H]7[C@@]6(C)CC[C@@H]54)C3)OC(CO)C(O)C2OC2OC(CO)C(O)C(O)C2O)C(O)C(O)C1O (stereo not given in full)
- TGI [1]: > 100 µM
- TGI [2]: > 100 µM
- TGI [3]: 3.35 µM
- TGI [4]: 3.73 µM
- TGI [5]: 3.26 µM
- TGI [7]: 3.65 µM
- TGI [8]: 5.9 µM
- TGI [9]: 4.93 µM
- TGI [10]: > 100 µM

Reference: PubChem BioAssay (NCI)
